Source: a compilation of properties of binary mixtures (doi:10.1016/j.fluid.2006.05.028)
One block for each compound: values may come before it.

Assay: xn = mol fraction of the nth substance listed
Conditions: 298.15 K, 101.3 kPa

- electrical conductivity (x1 = 0.004): 1.35 S/m
- electrical conductivity (x1 = 0.0084): 2.11 S/m
- electrical conductivity (x1 = 0.0133): 2.76 S/m
- electrical conductivity (x2 = 0.4084): 1.3 S/m
- electrical conductivity (x2 = 0.5931): 2.03 S/m
- electrical conductivity (x2 = 0.6983): 2.55 S/m
- electrical conductivity (x2 = 0.7663): 3.03 S/m
- electrical conductivity (x2 = 0.8139): 3.54 S/m
- electrical conductivity (x2 = 0.876): 4.14 S/m
- electrical conductivity (x2 = 0.8974): 4.31 S/m
- electrical conductivity (x2 = 0.9148): 4.41 S/m
- electrical conductivity (x2 = 0.9413): 4.43 S/m
- electrical conductivity (x2 = 0.9516): 4.33 S/m
- electrical conductivity (x2 = 0.9606): 4.16 S/m
SMILES: CCOS(=O)(=O)[O-].CC[n+]1ccn(C)c1 + O

- electrical conductivity (x2 = 0.65): 0.292 S/m
SMILES: [Br][Al]([Br])[Br] + CC[n+]1ccccc1.[Br-]

- electrical conductivity (x1 = 1): 0.0026 S/m
SMILES: O + CCOS(=O)(=O)[O-].CC[n+]1ccn(C)c1
